Measurements reported in US20230150951A1, “2,5- OR 2,6-DISUBSTITUTED HYDROQUINONE DERIVATIVES WITH AT LEAST ONE CARBOXY, SULFO OR AMIDO GROUP USEFUL AS MEDICAMENTS” (OM PHARMA SA, priority 2020, published 2023).
“Also recorded” adds a separate entry of the source.

Experiments:
[1] = system: STZ-induced diabetes model; experiment: STZ-induced diabetic nephropathy, kidney disease and retinopathy model (28 days treatment); settings: for Blood CRP / Blood IL-6 / Blood TGF-beta / Blood TNF-alpha: serum
Procedure: A total of 70 female CD-1 mice aged 5-7 weeks weighing approximately 25-30 g were used for the study. These were purchased from Charles River, UK and had 7 days acclimatization period. Animals were housed in IVC cages (up to 5 per cage) with individual mice identified by tail mark. All animals were allowed free access to a standard certified commercial diet and sanitised water during the study. The holding room was maintained under standard conditions: 18-24° C., 55-70% humidity and a 12 h light/dark cycle.
Mice were starved for 6 hours prior to injection. One week after completion of induction glucose levels were monitored and mice with levels less than 15 mml/L (280 mg/gL) were removed from the study as they had not developed the ideal severity of diabetes. Glucose levels were be monitored weekly and 5 weeks after STZ induction biochemical assessment of renal injury was carried out by measuring urine albumin and creatinine levels and confirming they were within the desired range. After successful completion of this stage animals were assigned to treatment groups.
Treatment continued for 4 weeks (28 days) with weekly measurement of blood glucose and urine albumin/creatinine. The study schedule is detailed below looking at weekly (week 5 to 9) blood glucose levels, urine albumin creatinie ratios, and terminal (week 9) blood chemistry and cytokines, kidney histology and eye-retinal leakage.
Urine Albumin: Creatinine (ALB: CRE): Urine was collected weekly and pooled for each treatment group.
ELISAs: At the end of the treatment period blood was collected and processed to serum. Serum levels of CRP, TGF-β, IL-6 and TNF-α were quantified using commercially available ELISA kits, results are shown in Table 56.

[2] = system: acute pancreatitis murine model; experiment: Caerulein-induced acute pancreatitis murine model; type: in vivo, Balb/c mice; parameters: Serum IL33 level / Serum TGF-B level: unit not given here; settings: for Schmidt Score (H&E): induced + vehicle = 10, non-induced = 0; for Pancreas IL33 level / Pancreas MPO activity / Pancreas TGF-B level: terminal pancreatic tissue; for Serum IL33 level / Serum TGF-B level / Serum amylase level / Serum lipase level: terminal serum; for pancreatic tissue levels of IL33: compared to the induced group
Procedure: Therapeutic efficacy of the compounds according to the present invention was assessed on an acute pancreatitis murine model. Tissue samples were obtained to allow post in-life analysis of pancreatitis parameters. Plasma samples were also obtained to assess animal exposure levels after administration of the compounds.
Animals: A total of 70 female Balb/c mice aged 8-10 weeks weighing approximately 20-25 g were used for the study (Charles River). After 7 days acclimatization, they were allocated into the different groups. […] Cages, bedding, and water were sanitized before use. Animals were provided with Corn-o-cobs enrichment bedding to provide environment enrichment and nesting material. […] The animal holding room were maintained as follows—room temperature at 20-24° C., humidity at 30-70% and a 12 h light/dark cycle used. Although animals used in this study were immuno-competent, preparation of dosing solutions and dosing/weighing of animals were carried out in a sterile biosafety cabinet.
Final formulation was in 5% DMSO, 10% Solutol, 10% PEG400, 75% 0.9% Saline and pH adjusted to 7 with 0.5M NaOH solution.
Final formulation is in 5% DMSO, 10% Solutol, 10% PEG400, 75% 0.9% Saline and pH adjusted to 7 with 0.5M NaOH solution. For per os (PO) dosing IVc-059a is formulated in water. Drug solutions were formulated on the day of dosing.
The purposes of this study were to assess efficacy compounds in an acute pancreatitis model (14 days), generate tissue samples to allow post in-life analysis of pancreatitis parameters and generate four plasma samples to assess animal exposure levels after first and last injection obtained from blood samples taken 1 h and 24 h after first and last injection.
Study Design: On the first study day animals were randomly be assigned to treatment groups, ensuring an equal spread of bodyweight. Mice (except negative control group) were treated with test compounds were given 5 minutes prior to caerulein dosing, followed by injection with caerulein at […] via intraperitoneal route (IP) daily during the study.
Treatment of test compounds were given 5 minutes prior to caerulein dosing.
Sampling and post in-life analyses: at times indicated above a whole blood sample (60 μl) were taken from the lateral tail vein into tubes coated with K2-EDTA. Plasma samples were prepared and stored frozen at −20° C. Plasma samples were sent to client bioanalysis provider Eurofins (FR) for quantification of compound.
Terminal Sampling: Prior to termination animals were weighed. Terminal study animals were culled via CO2 inhalation. A terminal blood sample was taken via cardiac puncture and plasma prepared. Lipase and Amylase activities were measured via ELISA using commercially available ELISA kits. Remaining plasma was stored for future cytokine analyses. Pancreas tissue was resected and weighed, and a section ([…]) snap frozen and analysed for quantification of compound in pancreas sample. A section ([…]) was processed for measurement of MPO activity, IL-33 and TGF-B levels via ELISA. The remainder was fixed in formalin and embedded in paraffin wax. H&E staining was carried out and section assessed using Schmidts standard scoring system, examining: edema, inflammatory infiltration, parenchymal necrosis, haemorrhage. Massons' Trichrome staining was carried out and area covered by fibrotic tissue quantified digitally using QuPath software. Terminal serum samples was used to assess blood chemistry using an IdeXX CHEM15 and LYTE4 clip (4 animals per treatment group).
Histopathology assessment of pancreatic injury based on 4 criteria: Oedema, Inflammatory infiltration, Parenchymal necrosis, Haemorrhage and scored as described below.
Schmidt score is the evaluation of the efficacy of the compounds based on the four histopathology criteria as described in the table below.

[3] = system: human retinal endothelial cells (HRECs); experiment: Inner blood retinal barrier: HREC monolayer permeability to FITC-dextran; type: cell-based
From the text: The mechanisms of actions involved in the anti-permeability effect of the tested treatments were explored by assessing permeability to fluorescent dextran and proinflammatory cytokines production using their mRNA expression levels by RT-PCR.
Inner Blood Retinal Barrier conditions: primary human retinal endothelial cells (HRECs) were obtained from a vial of cryopreserved cells purchased from Innoprot (Vizcay, Spain). These cells were isolated from human retinal tissue of cadaveric eyes digested with 0.1 mg/mL collagenase type I at 37° C. for 1 hour. Then, endothelial cells were finally selected with CD31 antibody-coated magnetic beads (DynaBeads; Dynal, Oslo, Norway). HRECs were thawed in the laboratory and cultured in endothelial basal medium (EBM) containing, 5.5 mM D-glucose, 5% FBS (Fetal Bovine Serum), 100 U/mL penicillin, 100 μg/mL streptomycin, and ECG (Endothelial Cell Growth Supplement) supplement (Innoprot, Vizcay, Spain). Human fibronectin (MerckMillipore, Madrid, Spain) at 5 μg/mL was used for cell attachment. Cells at passages 2-3 will be used for the experiments. For experimentation, HRECs were grown to confluence and then cell culture media was changed to medium supplemented with 1% FBS for 24 h and then exposed to different treatments.
Conditions treatments: The same conditions specified for the experiment in ARPE-19 cells were used.
Measurement of HREC permeability: Permeability in HREC monolayers were obtained on permeable supports at 12×10^5 cells/well (24 wells, PCF filters, Merk Millipore). Inserts were incubated for 48 hours at 37° C. in 5% CO2-air to form the monolayer. At the end, medium was serum depleted 24 h before to proceed with the treatments. The lower chamber was filled with 600 μL of complete EBM medium and the upper chamber with 100 μL of cell suspension in serum depleted (1%).
To detect changes in the permeability, 100 μg/ml of fluorescent FITC-DEXTRAN (Sigma, Madrid, Spain), was added to the upper side of the insert. Aliquots of 200 μL from the basal compartment was read in a SpectraMax Gemini (Molecular Devices, Sunnyvale, Calif.) at a wavelength of excitation/emission 485/528 nm every 30 min. Finally, the concentration of dextran was determined by extrapolation of the fluorescence reads in a standard curve. Each condition was tested in triplicate.

[4] = day 28 of treatment (week 9), 15 mg/kg IV, Captopril 50 mg/kg PO
[5] = 1st experiment, caerulein induced, 15 mg/kg IV, Ib-010a and IVc-059a 150 mg/kg PO, Pirfenidone 40 mg/kg IV
[6] = 1st experiment, 15 mg/kg IV, Ib-010a and IVc-059a 150 mg/kg PO, Pirfenidone 40 mg/kg IV
[7] = second experiment, IV, 15 mg/kg, Pirfenidone 100 mg/kg

SMILES	Blood BUN [1, 4]	Disease Score (kidney, H&E) [1, 4]	Eye area (retinal flatmount area covered by vasculature) [1, 4]	Trichrome staining (Kidney fibrosis) [1, 4]	Blood CRP [1, 4]	Blood IL-6 [1, 4]	Blood TGF-beta [1, 4]	Blood TNF-alpha [1, 4]	Acinar cell necrosis (group mean score) [2, 5]	Haemorrhage (group mean score) [2, 5]	Interstitial oedema (group mean score) [2, 5]	Mean terminal BW (% of initial) [2, 5]	Mean terminal pancreas weight [2, 5]	Pancreas histopathology observations (H&E) [2, 5]	Schmidt Score (H&E) [2, 5]	Pancreas IL33 level [2, 6]	Pancreas MPO activity [2, 6]	Pancreas TGF-B level [2, 6]	Serum IL33 level [2, 6]	Serum TGF-B level [2, 6]	also measured
O=C(O)c1cc(NC(=O)c2cc(O)c(C(=O)Nc3ccccc3-c3nnn[nH]3)cc2O)ccc1O [Ic-001a-Tz/004a, 5-(4-(2-(1H-tetrazol-5-yl)phenylaminocarbonyl)-2,5-dihydroxybenzamido)-2-hydroxy benzoic acid]	24.1 ± 4.1	9 ± 1	10.7 ± 2.1	2.48 ± 0.46	6077 ± 863	104.66 ± 22.89	15.48 ± 1.73	322.8 ± 40.1	1.5	1.0	1.6	93.5 % of initial	0.104 g	Oedema observed throughout pancreas; also recorded: Mild haemorrhage observed; also recorded: Acinar cell necrosis observed; also recorded: Leukocyte infiltration throughout; also recorded: Disruption to the basophilic region	6.9	180 ± 54	2.15	369 ± 195	35.43	8.99	Mean day 0 blood glucose Concentration (mmol/L) (SD) ([1]; day 0, 15 mg/kg IV, Captopril 50 mg/kg PO): 25.8 (5.7) mmol/L; Mean day 28 blood glucose Concentration (mmol/L) (SD) ([1]; day 28, 15 mg/kg IV, Captopril 50 mg/kg PO): 29.6 (7.8) mmol/L; Urine albumine creatinine ratio (ALB:CRE) ([1]; day 28 of treatment (week 9), urine pooled per group, 15 mg/kg IV, Captopril 50 mg/kg PO): 35.10; Leukocyte infiltration (group mean score) [2, 5]: 2.8; Serum amylase level [2, 6]: 36.51; Serum lipase level [2, 6]: 8.21; pancreatic tissue levels of IL33 ([2]; first experiment, IV): significant decrease
O=C(O)c1cc(O)c(CN(Cc2cc(O)c(C(=O)O)cc2O)Cc2cc(O)c(C(=O)O)cc2O)cc1O [IIIc-061a, Tris(4-carboxy-2,5-dihydroxyphenylmethyl)amine]	22.5 ± 4.1	8 ± 1	9.1 ± 1.1	1.54 ± 0.55	5963 ± 849	117.59 ± 29.21	17.35 ± 2.09	324.6 ± 43.6	0.5	1.0	1.0	91.4 % of initial	0.086 g	Mild oedema observed; also recorded: Mild haemorrhage observed; also recorded: Mild acinar cell necrosis observed; also recorded: Mild leukocyte infiltration observed; also recorded: Normal islet morphology observed	3.5	177 ± 80	2.13	295 ± 146	33.72	4.65	Serum TNF-α ([1]; 28 days, p<0.05): significantly lower than vehicle induced controls; Retina vasculature coverage ([1]; 28 days, retinal flat mounts, FITC-dextran): significantly decreased; Kidney collagen levels (Masson's Trichrome) ([1]; 28 days, vs induced vehicle controls): significantly decreased; Blood glucose levels on day 28 ([1]; IV, vs induced vehicle controls): reduction in blood glucose levels, however this did not reach statistical significance; Blood urea nitrogen levels ([1]; day 28, vs induced vehicle controls): significantly lower than induced vehicle controls; Urine ALB:CREA ([1]; treatment day 28): reduced; Serum amylase level [2, 6]: 38.38; Serum lipase level [2, 6]: 9.79; TGF-B levels in pancreas ([2]; first experiment, IV): decreased significantly; pancreatic tissue levels of IL33 ([2]; first experiment, IV): significant decrease; Global Schmidt score ([2]; first experiment, vs caerulein control animals): especially improved; Schmidt Score ([2]; second experiment, H&E sections): lower scores than the positive control pirfenidone; Lipase activity in serum ([2]; second experiment, pirfenidone 100 mg/kg, compounds 15 mg/k, vs vehicle treated animals): significantly lower than that in vehicle treated animals; MPO activity in pancreatic tissue ([2]; second experiment, vs induced vehicle treated controls): significantly lower than induced vehicle treated controls
O=C(O)c1cc(NC(=O)c2cc(O)cc(C(=O)Nc3ccc(O)c(C(=O)O)c3)c2O)ccc1O [IIc-007a, 5-(3-(3-carboxy-4-hydroxyphenylaminocarbonyl)-2,5-dihydroxybenzamido)-2-hydroxy benzoic acid]	–	–	–	–	–	–	–	–	–	–	–	–	–	–	–	–	–	–	–	–	% permeability HREC ([3]; No 3-5: 25 mM D-Gluc + compound 25 μg/mL): 136.3 ± 16.7%; % permeability HREC ([3]; No 6-8: 25 mM D-Gluc + compound 50 μg/mL + VEGF, TNF-α, IL-β (so in the source)): 147.7 ± 17.6%; % permeability HREC ([3]; No 11-13: 25 mM D-Gluc + compound 25 μg/mL + VEGF, TNF-α, IL-β (diabetic milieu)): 135.8 ± 16.6%; p < 0.05 (HREC permeability versus diabetic milieu) ([3]; No 11-13: compound 25 μg/mL + VEGF, TNF-α, IL-β, after 90 min): * (* p < 0.05 for FITC dextran leakage measured after 90 min in [ng/mL/cm^2] in comparison with diabetic milieu (25 mM D-Gluose + VEGF, TNF-α, IL-β)); % permeability HREC ([3]; No 14-16: 25 mM D-Gluc + compound 50 μg/mL + VEGF, TNF-α, IL-β (diabetic milieu)): 145.2 ± 8.8%; Amylase [2, 7]: 45.325 mU/mL; IL-33 [2, 7]: 340 ± 211 ng/mL; Lipase [2, 7]: 6.481 mU/mL; MPO [2, 7]: 2.74 ± 0.76 U/mg; Schmidt Score [2, 7]: 8.3 ± 1.6; TGF-B [2, 7]: 500 ± 195 ng/mL; Trichome staining (Fibrosis % area) [2, 7]: 1.821 ± 1.12 % area
